# According to patent US8398958B2, “Carotenoid compositions useful for whitening skin” (I.B.R. Israeli Biotechnology Research Ltd., priority 2006, dated 2013):
# How the values were obtained:
# [1] = tested on: B16 murine melanoma cells; experiment: Melanin assay - B16 murine melanoma; type: cell-based; settings: tested at 0.04%
# Experimental: The R7-B16 cells were cultivated in 24 well plates (1000 cells/well). At 20% confluence, culture media were replaced by fresh media containing or not containing (control) the test compound, KA or IBMX (references) or DMSO at a final concentration of 0.5% (control DMSO). Each experimental condition was examined in triplicate. The cells were incubated at 37° C. for 144 hours with medium change after 3 days (2×72 h).
# (§1) After incubation, the cell monolayers were rinsed, the cells were lysed and melanin was extracted by a solution 0.5 M NaOH. The optical density (OD) of each experimental point was measured at 405 nm against melanin standards (standard curve 0.39 to 100 μg melanin/ml solution, Sigma M8631). Results were expressed in μg melanin/ml and in percent of the negative control.
# (§2) The raw data were transferred to and analyzed with PRISM® software (Graph Pad Software). The inter-group comparisons were performed by variance analysis (ANOVA) with multiple comparison test of Dunnett.
# [2] = tested on: Normal human epidermal melanocytes (NHEM-2); experiment: Melanin assay - normal human melanocytes; type: cell-based; settings: for Melanin: 240 hours incubation; for % of control (melanin content): 240 hours, vs control
# Experimental: The R6-NHEM-2 cells were cultivated in 24 well plates (120,000 cells/well). At 50% confluence, culture media were replaced by fresh media containing or not containing (control) the test compound, KA or IBMX (references) or DMSO at a final concentration of 0.5% (control DMSO). Each experimental condition was examined in triplicate (hexaplicate for control). The cells were incubated at 37° C. for 240 hours with medium change every 3 days.
# as §1, §2
compound,measurement,setting,value
O=c1cc(CO)occ1O [Kojic Acid],Melanin,[1]; 144 hours incubation,14.9 µg/mL
same,% of control (melanin content),"[1]; 144 hours, vs control",88%
same,Melanin,[2]; tested at 0.00156%,16.1 µg/mL
same,% of control (melanin content),[2]; tested at 0.00156%,79%
same,Melanin,[2]; tested at 0.0036%,13.6 µg/mL
same,% of control (melanin content),[2]; tested at 0.0036%,67%
